This note sets out measurements from article PMC7883042 (Peptide Science (Hoboken, N.j.), 2021).

The test addresses SARS‐CoV‐2 RBD/ACE2 PPI in A549 cells overexpressing ACE2 (Severe acute respiratory syndrome coronavirus 2, UniProt P0DTC2).

On to “Ac-IEEQAKTFLDKFNHER8EDLFYQS5-NH2 (sidechain bridge or staple) [Peptide 8]”, for which the “entry of His‐tagged SARS‐CoV RBD into cells (immunofluorescence)” value was “show entry”.
